# From PMC6253949, “The Inhibitory Action of Kohamaic Acid A Derivatives on Mammalian DNA Polymerase β” (Molecules, 2008)
# Legend:
# Human DNA polymerase ι = molecular target: T1, Human DNA polymerase ι (Homo sapiens, UniProt Q9UNA4); test: DNA polymerase assay, human pol ι; type: biochemical
# T1 construct: His6 (C); made in house; host or cells: SF9 insect cells (baculovirus)
# T1 sequence (Q9UNA4 1-740): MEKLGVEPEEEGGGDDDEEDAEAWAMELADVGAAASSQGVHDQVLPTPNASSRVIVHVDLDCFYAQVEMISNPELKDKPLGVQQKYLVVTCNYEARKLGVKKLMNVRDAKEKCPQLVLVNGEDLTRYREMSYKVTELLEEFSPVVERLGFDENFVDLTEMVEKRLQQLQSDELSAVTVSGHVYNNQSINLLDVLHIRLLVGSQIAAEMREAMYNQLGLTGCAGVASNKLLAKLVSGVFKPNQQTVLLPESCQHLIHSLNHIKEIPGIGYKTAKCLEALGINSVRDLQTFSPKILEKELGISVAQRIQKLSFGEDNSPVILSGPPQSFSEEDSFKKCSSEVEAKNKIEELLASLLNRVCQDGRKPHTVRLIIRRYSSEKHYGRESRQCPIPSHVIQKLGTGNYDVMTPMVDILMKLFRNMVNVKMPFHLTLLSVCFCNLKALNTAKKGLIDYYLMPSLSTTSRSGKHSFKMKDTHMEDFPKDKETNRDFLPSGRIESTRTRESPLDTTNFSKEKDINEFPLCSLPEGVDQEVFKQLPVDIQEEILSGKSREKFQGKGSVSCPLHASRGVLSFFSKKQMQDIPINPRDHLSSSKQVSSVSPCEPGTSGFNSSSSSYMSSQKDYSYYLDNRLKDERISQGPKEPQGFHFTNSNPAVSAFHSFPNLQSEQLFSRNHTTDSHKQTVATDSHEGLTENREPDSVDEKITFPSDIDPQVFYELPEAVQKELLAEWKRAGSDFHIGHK
# Source text: (§1) Pol α was purified from calf thymus by immuno-affinity column chromatography as described by Tamai et al.. Recombinant rat pol β was purified from E. coli JMpβ5 as described by Date et al.. The human pol γ catalytic gene was cloned into pFastBac. Histidine-tagged enzyme was expressed using the BAC-TO-BAC HT Baculovirus Expression System according to the supplier's manual (LIFE TECHNOLOGIES, MD, USA) and purified using ProBoundresin (Invitrogen Japan, Tokyo, Japan). Human pols δ and ε were purified by the nuclear fractionation of human peripheral blood cancer cells (Molt-4) using the second subunit of pols δ and ε-conjugated affinity column chromatography, respectively. Recombinant human pols η and ι tagged with His6 at their C-terminal were expressed in SF9 insect cells using the baculovirus expression system, and were purified as described previously. A truncated form of pol κ (i.e., hDINB1DC) with 6 x His-tags attached at the C-terminal was overproduced using the BAC-to-BAC Baculovirus Expression System kit (GIBCO BRL, MD, USA) and purified as described previously. […]
# For pols, poly(dA)/oligo(dT)12-18 (A/T = 2/1) and dTTP were used as the DNA template-primer and nucleotide (i.e., dNTP) substrate, respectively. […] Activity without the inhibitor was considered 100%, and the remaining activity at each concentration of the inhibitor was determined relative to this value. […]
# T4 Polynucleotide kinase = molecular target: T2, T4 Polynucleotide kinase (Enterobacteria phage T4, UniProt P06855); test: T4 polynucleotide kinase assay; type: biochemical
# T2 construct: purchased Takara (Kyoto, Japan)
# T2 sequence (P06855 whole entry): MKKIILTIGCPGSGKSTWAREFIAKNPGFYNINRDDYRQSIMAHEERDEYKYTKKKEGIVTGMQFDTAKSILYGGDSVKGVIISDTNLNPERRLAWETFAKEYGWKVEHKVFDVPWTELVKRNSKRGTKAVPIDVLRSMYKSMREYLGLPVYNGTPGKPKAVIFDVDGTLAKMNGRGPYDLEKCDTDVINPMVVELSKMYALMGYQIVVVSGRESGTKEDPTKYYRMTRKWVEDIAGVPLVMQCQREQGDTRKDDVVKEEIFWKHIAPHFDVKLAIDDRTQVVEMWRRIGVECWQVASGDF
# Source text: as §1
# The primase activity of calf pol α, the activities of T7 RNA polymerase, T4 polynucleotide kinase and bovine DNase I were measured in standard assays according to the manufacturer's specifications as described by Tamiya-Koizumi et al., Nakayama et al., Soltis et al., and Lu and Sakaguchi, respectively.
smiles,measurement,setting,value
"CC1=CC[C@H]2C(C)(C)CCC[C@]2(C)[C@H]1CCCCCCCCCCCCCCCCC(=O)O (relative stereo) [compound 11, (1S*,4aS*,8aS*)-17-(1,4,4a,5,6,7,8,8a-octahydro-2,5,5,8a-tetramethylnaphthalen-1-yl)heptadecanoic acid]",IC50,Human DNA polymerase ι,7.84 ± 0.39 µM
same,IC50,T4 Polynucleotide kinase,> 200 µM
